Assay results: ChEMBL document CHEMBL1201862, “PubChem BioAssay data set” (2004)
Activity calls are given as the source filed them.

How the values were obtained:
[1] = target: T1, RNA-binding protein pos-1 (Caenorhabditis elegans, UniProt G5EF15); assay: disruptors of C. elegans POS-1 RNA interaction – biochemical, fluorescence polarization, dose response (AID 1964);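 also: purified POS-1 fused to maltose binding protein made in E. coli; potency of compounds blocking POS-1 binding to fluorescent RNA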
T1 sequence (G5EF15 whole entry): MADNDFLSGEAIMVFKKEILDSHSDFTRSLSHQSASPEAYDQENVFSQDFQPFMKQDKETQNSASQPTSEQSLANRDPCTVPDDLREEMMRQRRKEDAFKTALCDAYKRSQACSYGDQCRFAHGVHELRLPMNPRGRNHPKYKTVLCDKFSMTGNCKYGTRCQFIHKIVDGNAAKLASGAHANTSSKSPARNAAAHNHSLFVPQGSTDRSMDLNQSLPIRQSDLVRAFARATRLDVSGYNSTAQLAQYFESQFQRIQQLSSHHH

[2] = target: T2, Zinc finger protein mex-5 (Caenorhabditis elegans, UniProt Q9XUB2); assay: potency of MEX-5 RNA-binding blockers – biochemical, C. elegans, fluorescence polarization, dose response (AID 1960)
T2 sequence (Q9XUB2 whole entry): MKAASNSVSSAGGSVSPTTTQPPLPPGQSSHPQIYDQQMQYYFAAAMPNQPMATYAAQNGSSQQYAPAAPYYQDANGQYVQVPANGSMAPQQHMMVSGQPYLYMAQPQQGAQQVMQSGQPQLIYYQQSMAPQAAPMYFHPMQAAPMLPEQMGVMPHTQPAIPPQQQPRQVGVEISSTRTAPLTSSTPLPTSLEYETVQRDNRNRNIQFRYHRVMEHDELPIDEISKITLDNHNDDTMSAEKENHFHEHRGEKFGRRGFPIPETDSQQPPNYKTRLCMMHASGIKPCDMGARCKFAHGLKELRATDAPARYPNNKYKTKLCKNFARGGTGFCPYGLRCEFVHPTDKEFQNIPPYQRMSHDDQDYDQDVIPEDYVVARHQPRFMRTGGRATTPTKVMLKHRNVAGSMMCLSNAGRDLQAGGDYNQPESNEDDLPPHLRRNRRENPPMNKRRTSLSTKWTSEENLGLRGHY

Large T antigen = Large T antigen (Simian virus 40, UniProt P03070); format: functional, Betapolyomavirus macacae;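 also: Confirmatory-stage PubChem screen for compounds that inhibit SV40 T antigen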
[3] = target: T3, Rac GTPase-activating protein 1 (Homo sapiens, UniProt Q9H0H5); assay: blockers of MgcRacGAP-driven Rac1 GTP hydrolysis – biochemical, ADP Hunter fluorescence, primary and confirmatory, confirmation (AID 624330); format: functional
T3 sequence (Q9H0H5 whole entry): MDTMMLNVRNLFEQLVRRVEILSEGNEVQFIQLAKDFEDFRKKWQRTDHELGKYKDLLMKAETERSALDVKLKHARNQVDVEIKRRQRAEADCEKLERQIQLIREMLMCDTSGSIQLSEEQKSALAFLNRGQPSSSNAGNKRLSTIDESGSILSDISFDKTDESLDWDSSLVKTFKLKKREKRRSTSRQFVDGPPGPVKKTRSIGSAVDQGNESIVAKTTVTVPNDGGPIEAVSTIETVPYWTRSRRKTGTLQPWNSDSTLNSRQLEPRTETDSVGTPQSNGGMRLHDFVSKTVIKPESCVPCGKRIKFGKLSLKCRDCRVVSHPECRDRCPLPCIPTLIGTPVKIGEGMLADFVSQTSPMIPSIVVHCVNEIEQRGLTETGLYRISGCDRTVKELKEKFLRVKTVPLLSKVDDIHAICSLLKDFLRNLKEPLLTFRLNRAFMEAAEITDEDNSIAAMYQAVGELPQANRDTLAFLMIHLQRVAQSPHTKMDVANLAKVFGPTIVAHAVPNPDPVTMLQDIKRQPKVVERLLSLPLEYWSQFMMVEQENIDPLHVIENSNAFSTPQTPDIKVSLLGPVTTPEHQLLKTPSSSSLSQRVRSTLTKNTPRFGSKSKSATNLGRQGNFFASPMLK

[4] = luciferase reporter signal suppression in cells – H4 neuroglioma cells, luminescence, dose response (AID 1990); format: functional, cell-based
[5] = Luminescence Cell-Based Dose Response HTS to Identify Inhibitors of 5'UTR Stem-Loop Driven Prion Protein mRNA Translation in H4 Neuroglioblastoma Cells. [Related pubchem assays: 1827 (Project Summary), 1813 (Primary HTS)]; format: functional
[6] = target: T4, DNA repair protein RAD52 homolog (Homo sapiens, UniProt P43351); format: functional, biochemical
T4 sequence (P43351 whole entry): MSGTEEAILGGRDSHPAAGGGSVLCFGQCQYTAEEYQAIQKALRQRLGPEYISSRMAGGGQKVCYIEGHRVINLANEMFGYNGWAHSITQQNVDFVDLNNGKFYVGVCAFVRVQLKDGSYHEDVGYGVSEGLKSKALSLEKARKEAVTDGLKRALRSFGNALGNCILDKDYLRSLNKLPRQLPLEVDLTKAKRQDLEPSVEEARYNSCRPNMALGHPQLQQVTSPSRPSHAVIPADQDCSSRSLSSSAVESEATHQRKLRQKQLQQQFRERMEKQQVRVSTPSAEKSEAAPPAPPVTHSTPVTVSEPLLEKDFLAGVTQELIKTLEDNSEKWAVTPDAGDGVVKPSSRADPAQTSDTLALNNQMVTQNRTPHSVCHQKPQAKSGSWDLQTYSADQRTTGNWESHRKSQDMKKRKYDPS

[7] = alpha-synuclein stem-loop luciferase translation blockers – H4 neuroglioma cells, luminescence, confirmation (AID 1988); format: functional, cell-based
[8] = target: Heat shock protein HSP 90-alpha (Homo sapiens, UniProt P07900); format: functional, organism-based
[9] = target: T5, Carboxy-terminal domain RNA polymerase II polypeptide A small phosphatase 1 (Homo sapiens, UniProt Q9GZU7); assay: CTDSP1 inhibitors, concentration-response, biochemical, absorbance readout, ultra-high-throughput screen actives (AID 540297); format: functional
T5 sequence (Q9GZU7 whole entry): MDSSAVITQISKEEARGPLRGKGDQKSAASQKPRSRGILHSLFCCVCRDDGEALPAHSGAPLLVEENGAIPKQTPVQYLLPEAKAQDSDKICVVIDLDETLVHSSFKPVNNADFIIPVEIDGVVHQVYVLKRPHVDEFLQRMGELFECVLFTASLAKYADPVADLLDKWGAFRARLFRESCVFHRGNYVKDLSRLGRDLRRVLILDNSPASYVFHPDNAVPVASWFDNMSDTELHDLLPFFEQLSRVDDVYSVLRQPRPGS

[10] = target: T6, High affinity choline transporter 1 (Homo sapiens, UniProt Q9GZV3); assay: human choline transporter blockers, potency – cell-based, 5-point CRC, membrane potential dye, dose response (AID 504840); format: functional
T6 sequence (Q9GZV3 whole entry): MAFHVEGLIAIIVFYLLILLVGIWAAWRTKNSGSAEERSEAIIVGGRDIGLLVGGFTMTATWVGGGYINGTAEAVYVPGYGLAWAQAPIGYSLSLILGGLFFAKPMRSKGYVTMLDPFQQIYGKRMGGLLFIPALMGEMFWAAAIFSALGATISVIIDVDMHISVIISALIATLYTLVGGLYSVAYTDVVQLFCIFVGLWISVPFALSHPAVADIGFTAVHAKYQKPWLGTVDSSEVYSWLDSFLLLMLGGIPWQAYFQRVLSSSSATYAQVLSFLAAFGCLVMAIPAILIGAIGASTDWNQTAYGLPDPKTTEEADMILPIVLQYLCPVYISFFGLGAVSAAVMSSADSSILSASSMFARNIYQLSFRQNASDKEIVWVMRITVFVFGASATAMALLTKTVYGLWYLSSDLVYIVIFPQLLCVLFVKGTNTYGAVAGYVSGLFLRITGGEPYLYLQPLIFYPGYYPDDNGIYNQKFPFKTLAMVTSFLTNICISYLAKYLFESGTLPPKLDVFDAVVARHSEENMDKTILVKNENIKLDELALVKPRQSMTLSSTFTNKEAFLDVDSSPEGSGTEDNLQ

[11] = non-specific 3'UTR reporter inhibition in Clone20-Shn3RL – cell-based, Renilla luciferase, cherry-picked, counter-screen for Shn3 inhibitor project, dose response (AID 624133); format: functional
[12] = Luminescence Cell-Based Dose Retest to Confirm Inhibitors of Cancer Stem Cells. [Related pubchem assays (depositor defined):AID2717, AID2721]; format: functional; details: Homo sapiens
[13] = reduction of Shn3 3'UTR-driven luciferase in osteoblasts – cell-based, Clone20 osteoblasts, firefly luciferase, cherry-picked, dose response (AID 624132); format: functional;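 also: firefly luciferase luminescence from reporter carrying the Shn3 3'UTR in osteoblasts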
[14] = target: Induced myeloid leukemia cell differentiation protein Mcl-1 (Homo sapiens, UniProt Q07820); format: functional
[15] = growth inhibition of yeast DHODH-expressing 3D7 parasites – SYBR Green, dry powder samples, dose response (AID 1159570); format: functional, cell-based;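 also: parasite growth measured after 72 hours of compound exposure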
[16] = P. falciparum Dd2 growth inhibitors, dose response, SYBR Green, cherry-picked samples (AID 1159567); format: functional, cell-based
[17] = toxicity to human HepG2 hepatoma cells – cell-based, plate reader, dry powder samples, cytotoxicity control, dose response (AID 1159569); format: functional;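 also: inhibitor potency with signal falling toward the positive control level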
[18] = Dd2 malaria parasite growth inhibition potency – SYBR Green, dry powder samples, dose response (AID 1159566); format: functional, cell-based;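 also: potency for growth inhibition with lower SYBR green DNA signal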
[19] = growth inhibition of PfATP4-mutant resistant parasites – NITD609-resistant line, SYBR Green, dry powder, dose response (AID 1159571); format: functional, cell-based;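 also: parasites synchronized at ring stage by sorbitol before testing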
[20] = microbe, parasite or virus in culture; format: functional; details: Mycobacterium tuberculosis
Streptokinase A = target: T7, Streptokinase A (Streptococcus pyogenes serotype M1, UniProt P10520); assay: viability-normalized secreted streptokinase activity reduction – plasminogen activation absorbance, OD405, dose response (AID 1914); format: functional, Streptococcus pyogenes M1 GAS;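 also: secreted streptokinase activity via plasminogen activation per viability signal from cell pellet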
T7 sequence (P10520 whole entry): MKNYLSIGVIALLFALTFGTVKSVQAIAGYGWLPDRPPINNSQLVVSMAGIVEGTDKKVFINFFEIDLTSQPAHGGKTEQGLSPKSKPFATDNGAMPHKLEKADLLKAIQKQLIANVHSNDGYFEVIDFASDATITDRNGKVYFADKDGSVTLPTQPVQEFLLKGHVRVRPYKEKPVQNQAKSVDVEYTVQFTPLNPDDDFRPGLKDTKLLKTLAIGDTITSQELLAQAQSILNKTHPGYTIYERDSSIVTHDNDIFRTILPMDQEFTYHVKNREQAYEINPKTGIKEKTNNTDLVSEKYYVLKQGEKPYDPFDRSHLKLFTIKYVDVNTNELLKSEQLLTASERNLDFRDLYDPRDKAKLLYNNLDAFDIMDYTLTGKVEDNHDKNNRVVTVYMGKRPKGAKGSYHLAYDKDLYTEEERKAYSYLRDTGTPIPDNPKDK

Sequence of Large T antigen (P03070 whole entry): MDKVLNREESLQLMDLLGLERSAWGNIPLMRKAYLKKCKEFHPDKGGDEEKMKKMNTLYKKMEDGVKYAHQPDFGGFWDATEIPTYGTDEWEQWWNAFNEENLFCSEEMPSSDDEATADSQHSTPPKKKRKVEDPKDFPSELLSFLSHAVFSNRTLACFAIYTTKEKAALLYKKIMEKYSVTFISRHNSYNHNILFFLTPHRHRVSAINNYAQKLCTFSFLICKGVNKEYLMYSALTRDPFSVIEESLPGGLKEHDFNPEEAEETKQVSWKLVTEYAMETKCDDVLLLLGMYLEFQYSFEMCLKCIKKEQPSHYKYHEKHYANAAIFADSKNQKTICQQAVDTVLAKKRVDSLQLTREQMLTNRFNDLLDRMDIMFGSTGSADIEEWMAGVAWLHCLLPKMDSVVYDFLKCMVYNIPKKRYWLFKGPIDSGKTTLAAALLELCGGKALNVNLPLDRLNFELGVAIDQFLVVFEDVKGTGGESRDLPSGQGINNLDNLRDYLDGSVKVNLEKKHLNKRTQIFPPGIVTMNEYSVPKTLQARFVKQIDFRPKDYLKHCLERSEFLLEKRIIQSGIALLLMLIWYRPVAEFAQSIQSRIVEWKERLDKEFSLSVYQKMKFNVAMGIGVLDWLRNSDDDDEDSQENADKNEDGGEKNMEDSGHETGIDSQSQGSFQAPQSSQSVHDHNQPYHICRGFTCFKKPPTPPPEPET
Sequence of Induced myeloid leukemia cell differentiation protein Mcl-1 (Q07820 whole entry): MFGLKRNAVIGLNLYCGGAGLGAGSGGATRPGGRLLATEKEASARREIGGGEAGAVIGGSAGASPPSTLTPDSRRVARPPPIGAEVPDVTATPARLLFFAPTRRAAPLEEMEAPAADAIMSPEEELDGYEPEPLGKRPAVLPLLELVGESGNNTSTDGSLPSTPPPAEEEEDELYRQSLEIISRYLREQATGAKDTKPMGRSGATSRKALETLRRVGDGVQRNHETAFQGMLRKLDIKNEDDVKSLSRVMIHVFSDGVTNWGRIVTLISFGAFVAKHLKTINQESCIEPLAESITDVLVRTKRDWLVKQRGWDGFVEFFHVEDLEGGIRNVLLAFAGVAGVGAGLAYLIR

## COc1ccc(C2=CC3=C(Br)C(=O)C(C)(OC(=O)c4ccc(Cl)nc4)C(=O)C3=CO2)cc1 (configuration not stated)
[1]
  EC50: > 300 µM (not active)
[2]
  EC50: > 300 µM (not active)
Large T antigen
  IC50: 56.7 µM (active)

## O=C(CCn1cnc2ccccc21)N/N=C/c1ccc(O)cc1
[3]
  IC50: 51.6 µM (active)
Large T antigen
  IC50: 14.2 µM (active)

## CN(C)CC/C=C1\c2ccc(F)cc2Sc2cc(F)c(Cl)cc21
[4]
  EC50: > 120 µM (not active)
[5]
  EC50: 45.6 µM (active)
[6]
  AC50: 9.75 µM (active)
[7]
  EC50: 12.9 µM (active)

## O=C1C=CC(=O)N1c1ccc2ccccc2c1
[8]
  AC50: 0.832 µM (active)

## Nc1ccc2c(c1)-c1ccccc1S(=O)(=O)N2
[1]
  EC50: > 300 µM (not active)
[2]
  EC50: 12.2 µM (active)
Large T antigen
  IC50: 3.99 µM (active)

## Cc1ccc(C(=O)O)cc1NC(=S)NC(=O)c1ccc(COc2ccccc2)cc1
[9]
  IC50: 6.25 µM (active)
[10]
  IC50: 15.5 µM (active)

## COc1cc(C#Cc2c(-c3cncn3C)n(C)c3ccc(-c4ccc(OC)nc4)cc23)cc(OC)c1
[11]
  AC50: 21.2 µM (active)
[8]
  AC50: 5.5 µM (active)
[12]
  AC50: 4.95 µM (active)
[13]
  AC50: 20.5 µM (active)

## O=C1NC(=O)N(c2ccccc2)C(=O)/C1=C\c1ccc2c3c(cccc13)CC2
[1]
  EC50: > 300 µM (not active)
[2]
  EC50: > 300 µM (not active)
Large T antigen
  IC50: 68.4 µM (active)
[14]
  IC50: 5.04 µM (active)

## Cc1ccc(-c2csc(NC(=O)c3cccc(C)c3)c2C(=O)O)cc1
[10]
  IC50: 11.8 µM (active)

## c1ccc(CCNc2c3c(nc4ncnn24)CCC3)cc1
[10]
  IC50: 10.1 µM (active)

## COc1ccc2c3c(n(C)c2c1)[C@@H](CO)N(C(=O)Nc1ccc(F)cc1)CC31CCN(Cc2cccnc2)CC1
[15]
  AC50: 1.37 µM (active)
[16]
  AC50: 0.819 µM (active)
[17]
  AC50: 31.7 µM (active)
[18]
  AC50: 0.727 µM (active)
[19]
  AC50: 1.12 µM (active)

## CCOC(=O)c1sc(NC(=O)CCN2C(=O)c3cccc([N+](=O)[O-])c3C2=O)c(C(=O)OCC)c1C
[10]
  IC50: 5.98 µM (active)

## COc1cc(-c2cnc3c(NC=O)cc(-c4ccc(N5CCN(C)CC5)cc4)cn23)cc(OC)c1OC
[6]
  AC50: 4.54 µM (active)

## CC1(C)CC(=O)C(/C=N/c2ccc(O)cc2)=C(O)C1
[3]
  IC50: 17 µM (active)
Large T antigen
  IC50: 5.53 µM (active)

## CN1CCN(CCCCOc2ccccc2C=O)CC1
[6]
  AC50: 15.8 µM (active)

## O=C(CC(n1cncn1)C(Cl)(Cl)Cl)c1ccc([N+](=O)[O-])cc1 (configuration not stated)
[8]
  AC50: 4.15 µM (active)

## CCOC(=O)C(C)Sc1nc(-c2cccs2)ccc1C#N (configuration not stated)
[20]
  CC50: 38.9 µM (active)

## CSc1nc(Cl)cc(Nc2ccc(O)cc2)n1
Large T antigen
  IC50: 17.8 µM (active)

## CCOC(=O)c1[n-]c2ccccc2c1[N+]#N
[8]
  AC50: 0.444 µM (active)
Streptokinase A
  EC50: > 150 µM (not active)

## C=C(C)CSc1nnc(CCCCCNC(=O)OC(C)(C)C)o1
[10]
  IC50: 6.92 µM (active)

## S=C(NCC1CCCO1)Nc1cc(Cl)c(Cl)cc1Cl (configuration not stated)
[10]
  IC50: 14.5 µM (active)

## COc1cc(C(=O)NC2CC(C)(C)CC(C)(C)C2)ccc1OC1CCN(C(C)=O)CC1
[10]
  IC50: 13.8 µM (active)

## c1ccc(CN2CCN(c3nc(NCc4ccco4)c4ccccc4n3)CC2)cc1
[20]
  CC50: 24.4 µM (active)
[12]
  AC50: 3.34 µM (active)

## CN(C)c1ccc(NC(=O)Cn2ncn3c(cc4ccccc43)c2=O)cc1
Large T antigen
  IC50: 29.6 µM (active)
[14]
  IC50: 3.14 µM (active)
